Consider five compounds from patent US8912214B2, “Use of Chk2 kinase inhibitors for cancer treatment” (The United States of America, as Represented by the …, priority 2005, dated 2014).

Type in all cases: biochemical
For experiment [1], the target named is T1, Chk2 (Homo sapiens, UniProt O96017). In words: IMAP Chk2 high-throughput screening assay (fluorescence polarization). Background: In fluorescence polarisation assays a small probe gives low polarisation when free and higher when bound to something large.
T1 sequence (O96017 whole entry): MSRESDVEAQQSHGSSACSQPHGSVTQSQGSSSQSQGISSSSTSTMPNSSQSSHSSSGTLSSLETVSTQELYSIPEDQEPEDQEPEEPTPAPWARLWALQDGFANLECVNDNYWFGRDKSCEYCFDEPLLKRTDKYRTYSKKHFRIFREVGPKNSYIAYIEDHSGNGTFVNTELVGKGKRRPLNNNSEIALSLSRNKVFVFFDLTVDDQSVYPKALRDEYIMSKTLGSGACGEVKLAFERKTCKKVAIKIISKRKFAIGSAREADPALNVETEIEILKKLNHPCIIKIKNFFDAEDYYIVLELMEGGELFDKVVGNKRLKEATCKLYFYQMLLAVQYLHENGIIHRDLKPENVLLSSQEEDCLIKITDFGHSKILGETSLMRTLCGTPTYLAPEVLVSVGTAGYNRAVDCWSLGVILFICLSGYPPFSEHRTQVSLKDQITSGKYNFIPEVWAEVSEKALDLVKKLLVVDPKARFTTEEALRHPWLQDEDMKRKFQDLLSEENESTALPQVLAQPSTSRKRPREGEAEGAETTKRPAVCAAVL
Experiment [2] addresses T2, Chk1 (Homo sapiens, UniProt O14757).
T2 sequence (O14757 1-476): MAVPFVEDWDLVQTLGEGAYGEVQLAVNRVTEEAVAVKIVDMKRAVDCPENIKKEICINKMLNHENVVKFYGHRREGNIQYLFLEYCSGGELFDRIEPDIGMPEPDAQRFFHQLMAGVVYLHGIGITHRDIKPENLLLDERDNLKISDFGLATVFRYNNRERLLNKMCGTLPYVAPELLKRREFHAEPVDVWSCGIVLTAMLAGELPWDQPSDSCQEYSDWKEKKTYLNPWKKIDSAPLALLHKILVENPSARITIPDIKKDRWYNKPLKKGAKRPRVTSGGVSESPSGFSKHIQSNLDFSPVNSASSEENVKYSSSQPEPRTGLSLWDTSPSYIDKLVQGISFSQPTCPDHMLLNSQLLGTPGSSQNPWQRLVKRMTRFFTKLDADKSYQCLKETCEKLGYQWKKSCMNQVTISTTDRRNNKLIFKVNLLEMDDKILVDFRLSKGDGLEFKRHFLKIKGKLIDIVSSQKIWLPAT
In words: Chk1 inhibitory activity of screening hits. The following applies: FIG. 2.

Experiment [3] deals with T1, Chk2. In words: In vitro Chk2 kinase assay (γ32P-ATP, SDS-PAGE). Particulars: with increasing concentration; 30° C.; FIGS. 4 and 5. On the procedure:
(§1) Following on from the data obtained from high-throughput screening, another assay is employed to measure Chk2 kinase activity. This assay is based on using γ^32P-labeled ATP to mediate phosphorylation of the target substrate and autophosphorylation of Chk2. Histone H1 or Cdc25C is used as test substrate. The reactions are performed at 30° C. for appropriate times, then the samples have 2×SDS loading buffer added to quench the reaction. The samples are boiled for about 5 minutes and then subjected to SDS-PAGE.

Experiment [4] addresses T2, Chk1. Description: In vitro Chk1 kinase assay (γ32P-ATP, SDS-PAGE). Particulars: FIG. 6.
Text: FIG. 6 illustrates inhibition of Chk1 kinase activity by NSC 109555 using an in vitro kinase assay. Top bands indicate the level of Chk1 autophosphorylation, bottom bands indicate the level of histone H1 phosphorylation.
as §1
Staurosporine is used as a positive control to confirm Chk2 inhibition (See, FIG. 4). Following on from this, NSC 109555 is used in this assay and is depicted in FIG. 5. […].

Where [5] appears, read: IMAP assay, fluorescein-labeled peptide substrate, read-out: EC50 (Chk2 inhibition).

Molecules are shown by their SMILES. Like-named read-outs stand apart in the source and are kept apart here.

On to `C/C(=N\O)c1ccc2c(c1)C(=NO)c1cc(/C(C)=N/O)ccc1-2` [Compound 5], for which, at Chk2 [1] (setting [5]), the EC50 is about 4 µM.

Consider `C/C(=N\O)c1ccc2c(c1)C(=NO)c1ccccc1-2` [Compound 6], for which, on Chk2 [1] (setting [5]), the EC50 fell in the range of 0.6 to 3.8 µM.

`O=[N+]([O-])c1ccc2c(c1)C(=NO)c1cc([N+](=O)[O-])ccc1-2` [Compound 7]: the EC50 on Chk2 [1] fell in the range of 0.8 to 4 µM.

In the case of `CCN(CC)CCCNc1ccc2nc(C)n3c4ccc(O)cc4c(=O)c1c23` [Compound 8], the EC50 on Chk2 [1] (setting [5]) was about 20 µM.

With `C/C(=N\NC(=N)N)c1ccc(NC(=O)Nc2ccc(/C(C)=N/NC(=N)N)cc2)cc1` [NSC 109555], on Chk2 [1] (setting [5]), the EC50 worked out at 0.051 µM. Besides, at Chk1 [2], the “inhibitory effect on Chk1 activity” value is “little or no inhibitory effect”. For the same compound, the “Chk2 kinase activity (autophosphorylation and histone H1 phosphorylation)” value at Chk2 [3] is “inhibited”. On Chk1 [4], the “kinase activity of Chk1” value was “did not appear to inhibit”.

One may read the EC50 as the concentration giving half of the maximal effect.
